Data as given in patent US8772499B2, “TRPV3 modulators” (AbbVie Inc., priority 2011, dated 2014).
Read-outs that look alike come from different tables or passages of the source.

Tests used:
human TRPV3 = biological target: T1, human TRPV3 (Homo sapiens, UniProt Q8NET8); assay: In vitro antagonism of recombinant human TRPV3 activation (FLIPR Tetra calcium assay); assay type: cell-based; conditions: HEK293 cells stably expressing human TRPV3, agonist 2-APB at 80 μM
T1 construct: expressed in transfected cells
T1 sequence (Q8NET8 1-790): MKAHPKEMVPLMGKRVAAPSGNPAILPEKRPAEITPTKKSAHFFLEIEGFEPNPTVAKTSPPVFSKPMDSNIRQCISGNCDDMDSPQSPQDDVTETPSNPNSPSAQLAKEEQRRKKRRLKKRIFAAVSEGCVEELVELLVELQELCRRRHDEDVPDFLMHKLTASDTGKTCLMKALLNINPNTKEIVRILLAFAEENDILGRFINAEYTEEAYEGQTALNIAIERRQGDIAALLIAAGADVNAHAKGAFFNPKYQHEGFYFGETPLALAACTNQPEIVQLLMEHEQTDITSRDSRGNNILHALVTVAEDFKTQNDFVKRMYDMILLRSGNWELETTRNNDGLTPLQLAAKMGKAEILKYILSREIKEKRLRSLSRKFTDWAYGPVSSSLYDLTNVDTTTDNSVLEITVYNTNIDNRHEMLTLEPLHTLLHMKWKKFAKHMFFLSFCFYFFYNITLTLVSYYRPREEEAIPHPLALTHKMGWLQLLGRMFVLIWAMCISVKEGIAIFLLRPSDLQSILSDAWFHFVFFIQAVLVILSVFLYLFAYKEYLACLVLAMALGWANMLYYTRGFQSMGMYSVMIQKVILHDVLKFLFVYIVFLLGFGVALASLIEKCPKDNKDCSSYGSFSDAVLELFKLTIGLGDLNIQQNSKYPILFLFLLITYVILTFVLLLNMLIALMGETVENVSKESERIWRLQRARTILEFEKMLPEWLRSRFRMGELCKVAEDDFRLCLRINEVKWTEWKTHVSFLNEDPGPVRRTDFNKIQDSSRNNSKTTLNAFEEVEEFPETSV
Method in brief: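 HEK293 cells stably expressing human TRPV3, loaded with Calcium-4 dye for 90–120 min, received compound in DPBS, then 80 μM 2-APB (EC80) 3 min later. Max-minus-min fluorescence expressed as % of 2-APB response without antagonist; IC50 values mostly averages of n≥2 runs.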

[1] = In vitro human microsomal stability assay; assay type: in vitro ADME
Method in brief: (§1)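 Metabolic stability measured in Sprague-Dawley rat or human liver microsomes at 37 °C. Reactions supplemented with NADPH.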

[2] = In vitro rat microsomal stability assay; assay type: in vitro ADME, rat (Sprague-Dawley)
Method in brief: as §1

[3] = actual measured value shown parenthetically, in most cases average of at least two runs, read-out: IC50
[4] = human, microsomes, 0.5 h, 0.5 μM, pH 7.4
[5] = Sprague-Dawley, rat, microsomes, 0.5 h, 0.5 μM, pH 7.4
[6] = reported range, read-out: IC50 (range class)

OC(c1ccccn1)C1(c2ccc(C(F)(F)F)cc2)CCCO1 (single isomer, unassigned) [Example 89, (syn)-pyridin-2-yl{2-[4-(trifluoromethyl)phenyl]tetrahydrofuran-2-yl}methanol]
IC50 (human TRPV3; [3]): 2 µM
HUMAN MICROSOMAL STABILITY (% REMAINING AFTER 30 MINUTES) [1, 4]: 70%
RAT MICROSOMAL STABILITY (% REMAINING AFTER 30 MINUTES) [2, 5]: 4.3%

OC(c1ccccn1)C1(c2ccc(Cl)c(Cl)c2)CCOCC1 (stereo not drawn) [Example 59, [4-(3,4-dichlorophenyl)tetrahydro-2H-pyran-4-yl](pyridin-2-yl)methanol]
IC50 (human TRPV3; [3]): 1.79 µM
HUMAN MICROSOMAL STABILITY (% REMAINING AFTER 30 MINUTES) [1, 4]: 45%
RAT MICROSOMAL STABILITY (% REMAINING AFTER 30 MINUTES) [2, 5]: 12%

OC(c1ccccn1)C1(c2cccc(Cl)c2)CCCO1 (single isomer, unassigned) [Example 104, (anti)-[2-(3-chlorophenyl)tetrahydrofuran-2-yl](pyridin-2-yl)methanol]
IC50 (human TRPV3; [3]): 0.28 µM
HUMAN MICROSOMAL STABILITY (% REMAINING AFTER 30 MINUTES) [1, 4]: 15%
RAT MICROSOMAL STABILITY (% REMAINING AFTER 30 MINUTES) [2, 5]: 0.42%

CC1(O)CC(c2cncc(C(F)(F)F)c2)(C(O)c2ccccn2)C1 (single isomer, unassigned) [Example 308]
IC50 (human TRPV3; [3]): 1 µM
HUMAN MICROSOMAL STABILITY (% REMAINING AFTER 30 MINUTES) [1, 4]: 41%
RAT MICROSOMAL STABILITY (% REMAINING AFTER 30 MINUTES) [2, 5]: 13%

N[C@@H]1CCC[C@@H]1[C@@H](O)C1(c2ccc(OC(F)(F)F)cc2)CCC1 [Example 221, (R)-[(1S,2R)-2-aminocyclopentyl]{1-[4-(trifluoromethoxy)phenyl]-cyclobutyl}methanol]
IC50 (human TRPV3; [3]): 1.8 µM
HUMAN MICROSOMAL STABILITY (% REMAINING AFTER 30 MINUTES) [1, 4]: 83%
RAT MICROSOMAL STABILITY (% REMAINING AFTER 30 MINUTES) [2, 5]: 56%

OC(c1ccccn1)C1(c2ccc(C(F)(F)F)cc2)CNC1 (stereo not drawn) [Example 152, pyridin-2-yl{3-[4-(trifluoromethyl)phenyl]azetidin-3-yl}methanol]
IC50 (human TRPV3; [3]): 19.7 µM
HUMAN MICROSOMAL STABILITY (% REMAINING AFTER 30 MINUTES) [1, 4]: >85%
RAT MICROSOMAL STABILITY (% REMAINING AFTER 30 MINUTES) [2, 5]: >85%

OC(CC1(c2cccc(C(F)(F)F)c2)CCC1)c1ccccn1 (stereo not drawn) [Example 74, 1-(pyridin-2-yl)-2-{1-[3-(trifluoromethyl)phenyl]cyclobutyl}ethanol]
IC50 (human TRPV3; [3]): 0.41 µM
HUMAN MICROSOMAL STABILITY (% REMAINING AFTER 30 MINUTES) [1, 4]: 6.8%
RAT MICROSOMAL STABILITY (% REMAINING AFTER 30 MINUTES) [2, 5]: 0.45%

OC1CC(c2cccc(OC(F)(F)F)c2)(C(O)c2ccccn2)C1 (single isomer, unassigned) [Example 272]
IC50 (human TRPV3; [3]): 0.19 µM
HUMAN MICROSOMAL STABILITY (% REMAINING AFTER 30 MINUTES) [1, 4]: 54%
RAT MICROSOMAL STABILITY (% REMAINING AFTER 30 MINUTES) [2, 5]: 48%

OC(C1CCc2cccnc21)C1(c2ccccc2C(F)(F)F)CCC1 (stereo not drawn) [Example 197, (anti)-6,7-dihydro-5H-cyclopenta[b]pyridin-7-yl{1-[2-(trifluoromethyl)-phenyl]cyclobutyl}methanol]
IC50 (human TRPV3; [3]): > 20 µM
IC50 (human TRPV3; [6]): > 20 µM
HUMAN MICROSOMAL STABILITY (% REMAINING AFTER 30 MINUTES) [1, 4]: 0.26%
RAT MICROSOMAL STABILITY (% REMAINING AFTER 30 MINUTES) [2, 5]: <0.01%

CN1CCC(c2ccccc2OC(F)(F)F)(C(O)c2ccccn2)CC1 (stereo not drawn) [Example 149, {1-methyl-4-[2-(trifluoromethoxy)phenyl]piperidin-4-yl}(pyridin-2-yl)-methanol]
IC50 (human TRPV3; [3]): 6.2 µM
HUMAN MICROSOMAL STABILITY (% REMAINING AFTER 30 MINUTES) ([1]; human liver microsomes, 0.5 μM substrate, 0.25 mg/mL microsomal protein, pH 7.4, 37° C., NADPH, 30 minutes): >85%
RAT MICROSOMAL STABILITY (% REMAINING AFTER 30 MINUTES) ([2]; rat liver microsomes (Sprague-Dawley), 0.5 μM substrate, 0.25 mg/mL microsomal protein, pH 7.4, 37° C., NADPH, 30 minutes): 62%

OC(c1ccccn1)C1(C2CCCCC2)CCC1 (stereo not drawn) [Example 162, (1-cyclohexylcyclobutyl)(pyridin-2-yl)methanol]
IC50 (human TRPV3; [3]): 3.88 µM
HUMAN MICROSOMAL STABILITY (% REMAINING AFTER 30 MINUTES) [1, 4]: 0.02%
RAT MICROSOMAL STABILITY (% REMAINING AFTER 30 MINUTES) [2, 5]: <0.01%

CC(C)(C)OC(=O)N1CC(c2ccc(C(F)(F)F)cc2)(C(O)c2ccccn2)C1 (stereo not drawn) [Example 153, tert-butyl 3-[hydroxy(pyridin-2-yl)methyl]-3-[4-(trifluoromethyl)phenyl]-azetidine-1-carboxylate]
IC50 (human TRPV3; [3]): 8.01 µM
HUMAN MICROSOMAL STABILITY (% REMAINING AFTER 30 MINUTES) [1, 4]: 49%
RAT MICROSOMAL STABILITY (% REMAINING AFTER 30 MINUTES) [2, 5]: 21%

Cn1c(C2(C(O)c3ccccn3)CCC2)nc2ccccc21 (stereo not drawn) [Example 275, [1-(1-methyl-1H-benzimidazol-2-yl)cyclobutyl](pyridin-2-yl)methanol]
IC50 (human TRPV3; [3]): 19 µM
HUMAN MICROSOMAL STABILITY (% REMAINING AFTER 30 MINUTES) [1, 4]: 67%
RAT MICROSOMAL STABILITY (% REMAINING AFTER 30 MINUTES) [2, 5]: 5.7%

N[C@@H]1CCC[C@H]1[C@@H](O)C1(c2ccc(Cl)c(Cl)c2)CCC1 [Example 220, (R)-[(1R,2R)-2-aminocyclopentyl][1-(3,4-dichlorophenyl)cyclobutyl]-methanol]
IC50 (human TRPV3; [3]): 0.65 µM
HUMAN MICROSOMAL STABILITY (% REMAINING AFTER 30 MINUTES) [1, 4]: >85%
RAT MICROSOMAL STABILITY (% REMAINING AFTER 30 MINUTES) [2, 5]: 67%

OC1CC(c2ccc(OC(F)(F)F)cc2)(C(O)c2ccccn2)C1 (single isomer, unassigned) [Example 132]
IC50 (human TRPV3; [3]): 9.33 µM
HUMAN MICROSOMAL STABILITY (% REMAINING AFTER 30 MINUTES) [1, 4]: 81%
RAT MICROSOMAL STABILITY (% REMAINING AFTER 30 MINUTES) [2, 5]: 72%

OC(C1CCCc2cccnc21)C1(c2cccc(OC(F)(F)F)c2)CCC1 (stereo not drawn) [Example 188, (syn)-5,6,7,8-tetrahydroquinolin-8-yl{1-[3-(trifluoromethoxy)phenyl]-cyclobutyl}methanol]
IC50 (human TRPV3; [3]): > 20 µM
IC50 (human TRPV3; [6]): > 20 µM
HUMAN MICROSOMAL STABILITY (% REMAINING AFTER 30 MINUTES) [1, 4]: 0.16%
RAT MICROSOMAL STABILITY (% REMAINING AFTER 30 MINUTES) [2, 5]: <0.01%

OC(c1ccccn1)C1(C2(O)CCOC2)CCC1 (stereo not drawn) [Example 246, 3-{1-[hydroxy(pyridin-2-yl)methyl]cyclobutyl}tetrahydrofuran-3-ol]
IC50 (human TRPV3; [3]): > 20 µM
IC50 (human TRPV3; [6]): > 20 µM
HUMAN MICROSOMAL STABILITY (% REMAINING AFTER 30 MINUTES) [1, 4]: 71%
RAT MICROSOMAL STABILITY (% REMAINING AFTER 30 MINUTES) [2, 5]: 59%

OC(c1ccccn1)C1(c2ccc(C(F)(F)F)cc2)CCCO1 (single isomer, unassigned) [Example 88, (anti)-pyridin-2-yl{2-[4-(trifluoromethyl)phenyl]tetrahydrofuran-2-yl}methanol]
IC50 (human TRPV3; [3]): 0.37 µM
HUMAN MICROSOMAL STABILITY (% REMAINING AFTER 30 MINUTES) [1, 4]: 38%
RAT MICROSOMAL STABILITY (% REMAINING AFTER 30 MINUTES) [2, 5]: 7.0%

OC(c1ccccn1)C1(c2ccc(C(F)(F)F)cc2)CC(F)(F)C1 (stereo not drawn) [Example 133, {3,3-difluoro-1-[4-(trifluoromethyl)phenyl]cyclobutyl}(pyridin-2-yl)-methanol]
IC50 (human TRPV3; [3]): 0.12 µM
HUMAN MICROSOMAL STABILITY (% REMAINING AFTER 30 MINUTES) [1, 4]: 73%
RAT MICROSOMAL STABILITY (% REMAINING AFTER 30 MINUTES) [2, 5]: 61%

N[C@@H]1CCC[C@@H]1[C@@H](O)C1(c2ccc(Cl)c(Cl)c2)CCC1 [Example 216, (R)-[(1S,2R)-2-aminocyclopentyl][1-(3,4-dichlorophenyl)cyclobutyl]-methanol]
IC50 (human TRPV3; [3]): 2.26 µM
HUMAN MICROSOMAL STABILITY (% REMAINING AFTER 30 MINUTES) [1, 4]: >85%
RAT MICROSOMAL STABILITY (% REMAINING AFTER 30 MINUTES) [2, 5]: 41%
